In patent US8846653B2, “Delta-tocotrienol treatment and prevention of pancreatic cancer” (University of South Florida, priority 2006, dated 2014):

How the values were obtained:
Format in all cases: cell-based, human
BXPC3 cells = assay: MTT assay of BXPC3 cultures, single 50 μM dose; set-up: MTT assay result, run 1 / MTT assay result, run 2 / MTT assay result, run 3 / MTT assay result, run 4 / MTT assay result, run 5 / MTT assay result, run 6 / MTT assay result, run 7 / MTT assay result, av (average) / MTT assay result, av-blank / MTT assay result, av: unit not given here; details: BXPC3, 50 μM; for MTT assay result, av-blank: average minus blank; for MTT assay result, av (average) / MTT assay result, av: average of 7 runs
Method in brief: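 BXPC3 cells in 10% FBS medium at 37° C, 5% CO2, given a single 50 μM dose of tocotrienols, tocopherols, tocopherol succinate, geranylgeraniol, succinic acid or vehicle, alongside untreated control. Viability read by MTT at 48 or 120 hours.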

MiaPaCa-2 cells = assay: MTS assay of MiaPaCa2 cultures, single 50 μM dose; details: MiaPaCa2, 50 μM
Method in brief: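 MiaPaCa-2 pancreatic cancer cells were grown in complete DMEM with 10% fetal bovine serum, 1% penicillin-streptomycin and 1% L-glutamine, kept at 37° C. in a humidified 5% CO2 incubator. They received a single 50 μM dose of test agent or vehicle alongside an untreated control culture, and viability was assessed by MTS assay.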

[1] = tested on: SW1990 pancreatic cancer cells; assay: MTS assay of SW1990 cultures, single 50 μM dose; details: SW1990, 50 μM
Method in brief: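 SW1990 cells were grown in DMEM with 10% FBS at 37 °C, 5% CO2. They were given one 50 μM dose of a tocotrienol, tocopherol, tocopherol succinate, geranylgeraniol or succinic acid, in an olive-oil-extract vehicle. MTS viability was read at 24, 48 or 72 h and compared with vehicle-only cultures.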

Cc1c(C)c2c(c(C)c1OC(=O)CCC(=O)O)CC[C@@](C)(CCC[C@H](C)CCC[C@H](C)CCCC(C)C)O2 [TS, tocopherol succinate]
rel amt (relative value set to the control) (BXPC3 cells; 48 hours): 100 | MTT assay result, av-blank (BXPC3 cells; 48 hours): 0.229 | MTT assay result, av (average) (BXPC3 cells; 48 hours): 0.278 | MTT assay result, run 1 (BXPC3 cells; 48 hours): 0.271 | MTT assay result, run 2 (BXPC3 cells; 48 hours): 0.274 | MTT assay result, run 3 (BXPC3 cells; 48 hours): 0.296 | MTT assay result, run 4 (BXPC3 cells; 48 hours): 0.271 | MTT assay result, run 5 (BXPC3 cells; 48 hours): 0.282 | MTT assay result, run 6 (BXPC3 cells; 48 hours): 0.274 | MTT assay result, run 7 (BXPC3 cells; 48 hours): 0.277 | rel amt (relative value set to the control) (BXPC3 cells; 120 hours (5 days)): 17 | MTT assay result, av-blank (BXPC3 cells; 120 hours (5 days)): 0.097 | MTT assay result, av (BXPC3 cells; 120 hours (5 days)): 0.152 | MTT assay result, run 1 (BXPC3 cells; 120 hours (5 days)): 0.192 | MTT assay result, run 2 (BXPC3 cells; 120 hours (5 days)): 0.127 | MTT assay result, run 3 (BXPC3 cells; 120 hours (5 days)): 0.142 | MTT assay result, run 4 (BXPC3 cells; 120 hours (5 days)): 0.162 | MTT assay result, run 5 (BXPC3 cells; 120 hours (5 days)): 0.116 | MTT assay result, run 6 (BXPC3 cells; 120 hours (5 days)): 0.129 | MTT assay result, run 7 (BXPC3 cells; 120 hours (5 days)): 0.199 | rel amt (relative value set to the control) (MiaPaCa-2 cells; 24 hours): 96 | MTS assay result, run 1 (MiaPaCa-2 cells; 24 hours): 0.24 | MTS assay result, run 2 (MiaPaCa-2 cells; 24 hours): 0.211 | MTS assay result, run 3 (MiaPaCa-2 cells; 24 hours): 0.226 | MTS assay result, run 4 (MiaPaCa-2 cells; 24 hours): 0.172 | MTS assay result, run 5 (MiaPaCa-2 cells; 24 hours): 0.221 | MTS assay result, run 6 (MiaPaCa-2 cells; 24 hours): 0.201 | MTS assay result, run 7 (MiaPaCa-2 cells; 24 hours): 0.214 | MTS assay result, run 8 (MiaPaCa-2 cells; 24 hours): 0.228 | MTS assay result, run 9 (MiaPaCa-2 cells; 24 hours): 0.214 | rel amt (relative value set to the control) (MiaPaCa-2 cells; 48 hours): 76 | MTS assay result, run 1 (MiaPaCa-2 cells; 48 hours): 0.257 | MTS assay result, run 2 (MiaPaCa-2 cells; 48 hours): 0.254 | MTS assay result, run 3 (MiaPaCa-2 cells; 48 hours): 0.262 | MTS assay result, run 4 (MiaPaCa-2 cells; 48 hours): 0.237 | MTS assay result, run 5 (MiaPaCa-2 cells; 48 hours): 0.258 | MTS assay result, run 6 (MiaPaCa-2 cells; 48 hours): 0.275 | MTS assay result, run 7 (MiaPaCa-2 cells; 48 hours): 0.32 | MTS assay result, run 8 (MiaPaCa-2 cells; 48 hours): 0.337 | MTS assay result, run 9 (MiaPaCa-2 cells; 48 hours): 0.275 | rel amt (relative value set to the control) (MiaPaCa-2 cells; 72 hours): 207 | MTS assay result, run 1 (MiaPaCa-2 cells; 72 hours): 0.998 | MTS assay result, run 2 (MiaPaCa-2 cells; 72 hours): 0.962 | MTS assay result, run 3 (MiaPaCa-2 cells; 72 hours): 1.016 | MTS assay result, run 4 (MiaPaCa-2 cells; 72 hours): 0.887 | MTS assay result, run 5 (MiaPaCa-2 cells; 72 hours): 0.936 | MTS assay result, run 6 (MiaPaCa-2 cells; 72 hours): 0.897 | MTS assay result, run 7 (MiaPaCa-2 cells; 72 hours): 0.85 | MTS assay result, run 8 (MiaPaCa-2 cells; 72 hours): 0.801 | MTS assay result, run 9 (MiaPaCa-2 cells; 72 hours): 0.918 | rel amnt (relative value set to the control) ([1]; 24 hours): 110 | MTS assay result, run 1 ([1]; 24 hours): 0.155 | MTS assay result, run 2 ([1]; 24 hours): 0.168 | MTS assay result, run 3 ([1]; 24 hours): 0.164 | MTS assay result, run 4 ([1]; 24 hours): 0.158 | MTS assay result, run 5 ([1]; 24 hours): 0.155 | MTS assay result, run 6 ([1]; 24 hours): 0.163 | MTS assay result, run 7 ([1]; 24 hours): 0.165 | MTS assay result, run 8 ([1]; 24 hours): 0.167 | MTS assay result, run 9 ([1]; 24 hours): 0.162 | rel amnt (relative value set to the control) ([1]; 48 hours): 104 | MTS assay result, run 1 ([1]; 48 hours): 0.122 | MTS assay result, run 2 ([1]; 48 hours): 0.166 | MTS assay result, run 3 ([1]; 48 hours): 0.16 | MTS assay result, run 4 ([1]; 48 hours): 0.135 | MTS assay result, run 5 ([1]; 48 hours): 0.148 | MTS assay result, run 6 ([1]; 48 hours): 0.174 | MTS assay result, run 7 ([1]; 48 hours): 0.18 | MTS assay result, run 8 ([1]; 48 hours): 0.173 | MTS assay result, run 9 ([1]; 48 hours): 0.157 | rel amnt (relative value set to the control) ([1]; 72 hours): 207 | MTS assay result, run 1 ([1]; 72 hours): 0.998 | MTS assay result, run 2 ([1]; 72 hours): 0.962 | MTS assay result, run 3 ([1]; 72 hours): 1.02 | MTS assay result, run 4 ([1]; 72 hours): 0.887 | MTS assay result, run 5 ([1]; 72 hours): 0.936 | MTS assay result, run 6 ([1]; 72 hours): 0.897 | MTS assay result, run 7 ([1]; 72 hours): 0.85 | MTS assay result, run 8 ([1]; 72 hours): 0.801 | MTS assay result, run 9 ([1]; 72 hours): 0.918

alpha tocotrienol [T3 alpha]
rel amt (relative value set to the control) (BXPC3 cells; 48 hours): 104 | MTT assay result, av-blank (BXPC3 cells; 48 hours): 0.236 | MTT assay result, av (average) (BXPC3 cells; 48 hours): 0.285 | MTT assay result, run 1 (BXPC3 cells; 48 hours): 0.279 | MTT assay result, run 2 (BXPC3 cells; 48 hours): 0.275 | MTT assay result, run 3 (BXPC3 cells; 48 hours): 0.295 | MTT assay result, run 4 (BXPC3 cells; 48 hours): 0.301 | MTT assay result, run 5 (BXPC3 cells; 48 hours): 0.3 | MTT assay result, run 6 (BXPC3 cells; 48 hours): 0.273 | MTT assay result, run 7 (BXPC3 cells; 48 hours): 0.275 | rel amt (relative value set to the control) (BXPC3 cells; 120 hours (5 days)): 97 | MTT assay result, av-blank (BXPC3 cells; 120 hours (5 days)): 0.558 | MTT assay result, av (BXPC3 cells; 120 hours (5 days)): 0.613 | MTT assay result, run 1 (BXPC3 cells; 120 hours (5 days)): 0.584 | MTT assay result, run 2 (BXPC3 cells; 120 hours (5 days)): 0.637 | MTT assay result, run 3 (BXPC3 cells; 120 hours (5 days)): 0.594 | MTT assay result, run 4 (BXPC3 cells; 120 hours (5 days)): 0.63 | MTT assay result, run 5 (BXPC3 cells; 120 hours (5 days)): 0.62 | MTT assay result, run 6 (BXPC3 cells; 120 hours (5 days)): 0.61 | MTT assay result, run 7 (BXPC3 cells; 120 hours (5 days)): 0.618 | rel amt (relative value set to the control) (MiaPaCa-2 cells; 24 hours): 116 | MTS assay result, run 1 (MiaPaCa-2 cells; 24 hours): 0.274 | MTS assay result, run 2 (MiaPaCa-2 cells; 24 hours): 0.296 | MTS assay result, run 3 (MiaPaCa-2 cells; 24 hours): 0.293 | MTS assay result, run 4 (MiaPaCa-2 cells; 24 hours): 0.216 | MTS assay result, run 5 (MiaPaCa-2 cells; 24 hours): 0.245 | MTS assay result, run 6 (MiaPaCa-2 cells; 24 hours): 0.258 | MTS assay result, run 7 (MiaPaCa-2 cells; 24 hours): 0.243 | MTS assay result, run 8 (MiaPaCa-2 cells; 24 hours): 0.239 | MTS assay result, run 9 (MiaPaCa-2 cells; 24 hours): 0.258 | rel amt (relative value set to the control) (MiaPaCa-2 cells; 48 hours): 93 | MTS assay result, run 1 (MiaPaCa-2 cells; 48 hours): 0.336 | MTS assay result, run 2 (MiaPaCa-2 cells; 48 hours): 0.325 | MTS assay result, run 3 (MiaPaCa-2 cells; 48 hours): 0.343 | MTS assay result, run 4 (MiaPaCa-2 cells; 48 hours): 0.327 | MTS assay result, run 5 (MiaPaCa-2 cells; 48 hours): 0.39 | MTS assay result, run 6 (MiaPaCa-2 cells; 48 hours): 0.376 | MTS assay result, run 7 (MiaPaCa-2 cells; 48 hours): 0.322 | MTS assay result, run 8 (MiaPaCa-2 cells; 48 hours): 0.286 | MTS assay result, run 9 (MiaPaCa-2 cells; 48 hours): 0.338 | rel amt (relative value set to the control) (MiaPaCa-2 cells; 72 hours): 61 | MTS assay result, run 1 (MiaPaCa-2 cells; 72 hours): 0.279 | MTS assay result, run 2 (MiaPaCa-2 cells; 72 hours): 0.282 | MTS assay result, run 3 (MiaPaCa-2 cells; 72 hours): 0.294 | MTS assay result, run 4 (MiaPaCa-2 cells; 72 hours): 0.238 | MTS assay result, run 5 (MiaPaCa-2 cells; 72 hours): 0.302 | MTS assay result, run 6 (MiaPaCa-2 cells; 72 hours): 0.279 | MTS assay result, run 7 (MiaPaCa-2 cells; 72 hours): 0.254 | MTS assay result, run 8 (MiaPaCa-2 cells; 72 hours): 0.254 | MTS assay result, run 9 (MiaPaCa-2 cells; 72 hours): 0.273 | rel amnt (relative value set to the control) ([1]; 24 hours): 121 | MTS assay result, run 1 ([1]; 24 hours): 0.168 | MTS assay result, run 2 ([1]; 24 hours): 0.183 | MTS assay result, run 3 ([1]; 24 hours): 0.175 | MTS assay result, run 4 ([1]; 24 hours): 0.148 | MTS assay result, run 5 ([1]; 24 hours): 0.195 | MTS assay result, run 6 ([1]; 24 hours): 0.176 | MTS assay result, run 7 ([1]; 24 hours): 0.206 | MTS assay result, run 8 ([1]; 24 hours): 0.172 | MTS assay result, run 9 ([1]; 24 hours): 0.178 | rel amnt (relative value set to the control) ([1]; 48 hours): 116 | MTS assay result, run 1 ([1]; 48 hours): 0.168 | MTS assay result, run 2 ([1]; 48 hours): 0.162 | MTS assay result, run 3 ([1]; 48 hours): 0.16 | MTS assay result, run 4 ([1]; 48 hours): 0.146 | MTS assay result, run 5 ([1]; 48 hours): 0.175 | MTS assay result, run 6 ([1]; 48 hours): 0.205 | MTS assay result, run 7 ([1]; 48 hours): 0.2 | MTS assay result, run 8 ([1]; 48 hours): 0.187 | MTS assay result, run 9 ([1]; 48 hours): 0.175 | rel amnt (relative value set to the control) ([1]; 72 hours): 61 | MTS assay result, run 1 ([1]; 72 hours): 0.279 | MTS assay result, run 2 ([1]; 72 hours): 0.282 | MTS assay result, run 3 ([1]; 72 hours): 0.29 | MTS assay result, run 4 ([1]; 72 hours): 0.238 | MTS assay result, run 5 ([1]; 72 hours): 0.302 | MTS assay result, run 6 ([1]; 72 hours): 0.279 | MTS assay result, run 7 ([1]; 72 hours): 0.25 | MTS assay result, run 8 ([1]; 72 hours): 0.254 | MTS assay result, run 9 ([1]; 72 hours): 0.273
